Laboratory results reported in PubChem BioAssay AID2305 (GlaxoSmithKline (GSK), 2010).

System: P. falciparum 3D7 growth, pLDH absorbance
Assay: P. falciparum 3D7 growth inhibition, dose response, strain 3D7 (AID 2305)

SMILES | IC50 [nM]
COC(=O)[C@@H](NC(=O)[C@@H](Nc1ccc(C#N)c2ccccc12)C(C)(C)C)c1ccc(O)cc1 | 780
CC(C)C[C@H](NC(=O)c1cc(-c2ccc(C(C)(C)C)cc2)no1)C(=O)O (tested in a mixture with another compound) | 190
CNCCCNc1ccnc2cc(Cl)ccc12 | 60
CN(C)CCCOc1ccc(CN2CCC(c3c[nH]c4ccc(NCC5CCCCC5)cc34)CC2)cc1 | 680
COc1cc2c(cc1C(F)(F)F)N(C(=O)Nc1cc(-c3ccncc3)cc(-c3cccnc3)c1)CC2 | 620
O=C(NCc1ccccc1)c1ncn(CCCN2CCC(N3CCCC3)CC2)c1-c1ccc(Cl)c(Cl)c1 | 1120
CC(C)C[C@@H](/C=N/NC(N)=O)NC(=O)[C@H](CC(C)C)NC(=O)[C@H](CC(C)C)NC(=O)OCc1ccccc1 | 150
Cc1[nH]c(C)c(-c2ccc(-c3ccccc3Cl)nc2)c(=O)c1Cl | 220
Cc1ccc2ccncc2c1N | 700
C[C@@H]1CN(c2cnn(C/C=C/c3ccc(NC(=O)c4ccc(Cl)cc4)cc3)c(=O)c2Cl)C[C@H](C)N1 | 850
COc1ccc(S(=O)(=O)N(c2cc(Br)cc3c2OCC3)S(=O)(=O)c2ccc(OC)c(N3CCN(C)CC3)c2)cc1N1CCN(C)CC1 | 1170
COCCN1CCC(CNCC(C)(C)c2nc(-c3ccc(Cl)c(O)c3)c(-c3ccncc3)[nH]2)CC1 | 750
O=C(Nc1ccc(N2CCCCC2)c(Cl)c1)c1ccc(Br)o1 | 550
CCN1CCN(C(=O)NC(C(=O)N2CCCC(COc3ccc(Cc4ccccc4)cc3)C2)c2cccs2)C(=O)C1=O (centres undefined) | 480
CCN(CCCNc1nc(=S)[nH]c2cc(OC)c(OC)cc12)c1ccccc1 | 720
COc1cc(OC)c(NC(=O)C2c3ccccc3C(=O)N(C)C2c2cccs2)cc1Cl (centres undefined) | 760
Oc1ccc(CCNc2nc(NCCOc3cccc4ccccc34)nc(N3CCNCC3)n2)cc1 | 900
CCCCN(CCCC)CCCCNc1c2ccccc2nc2ccccc12 | 150
CC(C)(C)C1CCc2onc(C(=O)Nc3cc(Cl)ccc3O)c2C1 (centres undefined) | 780
Cc1ccc(NC(=O)c2ccnc(N3CCN(c4ccncc4)CC3)c2)cc1F | 870
COc1ccc(-c2cccc(NC(=O)c3cccc(C#N)c3)c2)cc1CN1CCNCC1 | 730
CCn1ccc2c(N3CCCCS3(=O)=O)cc(C(=O)N[C@@H](Cc3ccccc3)[C@H](O)CNC(C)(C)CCCC(C)C)cc21 | 420
CC(=O)N1CCC(C(=O)Nc2ccc(-c3cccc(-c4nc5ccc(C(F)(F)F)cc5[nH]4)c3)cc2)CC1 | 240
CC(=O)Nc1cccc(C(=O)Nc2nc3ccc(-c4cc(=O)[nH]c(Nc5ccccc5Cl)n4)cc3[nH]2)c1 | 690
O=C(NCC1CCN(CC2CCCCC2)C1)c1cc(-c2cccc(C(F)(F)F)c2)cs1 (centres undefined) | 740

SMILES | IC50 [nM]
O=[N+]([O-])c1cccc(C(Nc2ccccn2)c2ccc3cccnc3c2O)c1 (centres undefined) | 1330
COc1ccc(CCC(C)(C)NCC(O)c2cccc(C(F)(F)F)c2)cc1 (centres undefined) | 480
Cc1cc(N[C@@H](Cc2ccccc2)C(=O)NCCOc2ccccc2)nc(NCCOc2ccccc2)n1 | 1360
O=C(/C=C/c1ccc(Cl)c(Cl)c1)NCCCCCN1CCC(c2c[nH]c3cc(O)ccc23)CC1 | 750
CN1CCN(CCCCCNc2c3ccccc3nc3ccccc23)CC1 | 740
Cc1nc(N)nc(N)c1OCc1cccc2c1ccc1ccccc12 | 100
CCNC(=O)CCc1cccc(Br)c1 | 530
CCc1ccc(CC(C)NCC(O)c2ccccc2)cc1 (centres undefined) | 890
CN(C)Cc1ccc(-c2cccc(NC(=O)c3ccc(Cl)cc3)c2)cc1 | 900
COc1ccc(CCNCc2ccc3nc(N)cc(C)c3c2)cc1 | 210
Cc1cccc2[nH]c(-c3ccc(-c4ccc(CNCCNC(=O)c5ccnn5C)cc4)s3)nc12 | 310
CC(=O)c1c[nH]c2ccc(/C=C/C(=O)NC3CCC(CCN4CCc5ccc(C#N)cc5CC4)CC3)cc12 (centres undefined) | 500
CCOc1ccccc1CNc1nccc(NCCc2cn(C)c3ccccc23)n1 | 1260
CCN(CC)C(=NCCCCCCN=C(/N=C(/N)Nc1ccc(Br)cc1)N(CC)CC)/N=C(/N)Nc1ccc(Br)cc1 | 380
COc1ccc(-c2cccc(NC(=O)c3cccc(C#N)c3)c2)cc1CN1CCCC1 | 750
O=C(C1CCCCC1)N1CCOC(CCN2CCC(c3ccccc3)CC2)(c2ccc(Cl)c(Cl)c2)C1 (centres undefined) | 930
Cc1cc(C)cc(OCC(O)CN(Cc2cc(Cl)cc(Cl)c2)C(=O)Nc2ccc([N+](=O)[O-])cc2)c1 (centres undefined) | 800
Cc1cc2nc(-c3ccc(C(=O)NC4CCN(Cc5ccccc5)CC4)cc3)[nH]c2cc1C | 740
C=C[C@H]1CN2CC[C@H]1C[C@H]2[C@H](OS(=O)(=O)O)c1ccnc2ccccc12 | 620
COc1ccc(Br)cc1/C=C/C(=O)Nc1cccc(C2CCCN(C)C2)c1 (centres undefined) | 890
O=C(NCc1ccccc1)C1Cc2c([nH]c3ccc(Br)cc23)C2(CCN(Cc3ccccc3)CC2)N1 (centres undefined) | 870
CCOc1ccc2nc(C)cc(NN=Cc3cccc(C)n3)c2c1 | 750
c1ccc2c(Nc3ccc(Cc4ccc(Nc5c6ccccc6nc6ccccc56)cc4)cc3)c3ccccc3nc2c1 | 160
COc1cccc(C(=O)NCCc2cccc(Cl)c2)c1OCc1ccccc1 | 1260
